Test results as given in US20260242419A1, “A CYCLIC PEPTIDE FOR TRAPPING INTERLEUKIN-1 BETA” (Merck Sharp & Dohme LLC, priority 2023, published 2026).
Where two headings read alike, the source gives them in different places. Starred links: 1 amine or outer side, 2 acyl side, 3 side chain; linkers in the order of their positions; H or OH if unused. Non-standard residues stand in square brackets, D forms with d. Residues, ends and D or L forms follow the SMILES beside them. Phe(4-(4-Ac-piperazinyl)) = CC(=O)N1CCN(c2ccc(C[C@H](N)C(=O)O)cc2)CC1; dPro(4R-(4-pyridylmethyl)) = O=C(O)[C@H]1C[C@@H](Cc2ccncc2)CN1; dPro(3S-(4-Br-benzyl)) = O=C(O)[C@@H]1NCC[C@@H]1Cc1ccc(Br)cc1; Trp(βS-Me,4-F) = C[C@@H](c1c[nH]c2cccc(F)c12)[C@H](N)C(=O)O; Bip(4'-COOH) = N[C@@H](Cc1ccc(-c2ccc(C(=O)O)cc2)cc1)C(=O)O; Ala(1-bicyclo(1.1.1)pentyl) = N[C@@H](CC12CC(C1)C2)C(=O)O; dPro(4R-Bzl(4-F)) = O=C(O)[C@H]1C[C@@H](Cc2ccc(F)cc2)CN1; Trp(4-Cl) = N[C@@H](Cc1c[nH]c2cccc(Cl)c12)C(=O)O; X4 = O=C([C@H]1[C@@H](Cc2ccncc2)CCN1[*:1])[*:2]; X5 = O=C([C@H]1C[C@@H](Cc2ccccc2)CN1[*:1])[*:2]; Ala(pyrimidin-5-yl) = N[C@@H](Cc1cncnc1)C(=O)O; Phe(4-COOH) = N[C@@H](Cc1ccc(C(=O)O)cc1)C(=O)O; Pro(cis-4-F) = O=C(O)[C@@H]1C[C@H](F)CN1; dPhe(4-F) = N[C@H](Cc1ccc(F)cc1)C(=O)O; Ala(4-THP) = N[C@@H](CC1CCOCC1)C(=O)O; d(αMeD) = C[C@@](N)(CC(=O)O)C(=O)O; 4Pal = N[C@@H](Cc1ccncc1)C(=O)O; αMeD = C[C@](N)(CC(=O)O)C(=O)O; αMeK = C[C@](N)(CCCCN)C(=O)O; αMeS = C[C@](N)(CO)C(=O)O; Orn = NCCC[C@H](N)C(=O)O; Dab = NCC[C@H](N)C(=O)O; Aib = CC(C)(N)C(=O)O

Biological target: T1, IL-1β (Homo sapiens, UniProt P01584)
T1 construct: purchased BioLegend 579404
Assay: IL-6 assay in MRC5 cells: inhibition of IL-1β induced IL-6 secretion (AlphaLISA)
Format: cell-based
Settings: inhibition of IL-1β induced IL-6 secretion in MRC5 cells, read-out: MRC5 IC50
Summary of the method: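 Compound was pre-incubated 1 h at ambient temperature with recombinant human IL-1β at 2λ EC80 before adding human lung fibroblast MRC5 cells (3000/well) in EMEM with 0.025% BSA. After overnight culture at 37 °C, 5% CO2, secreted IL-6 in conditioned medium was measured by AlphaLISA; IC50 from 4-parameter logistic fits.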

T1 sequence (P01584 117-269): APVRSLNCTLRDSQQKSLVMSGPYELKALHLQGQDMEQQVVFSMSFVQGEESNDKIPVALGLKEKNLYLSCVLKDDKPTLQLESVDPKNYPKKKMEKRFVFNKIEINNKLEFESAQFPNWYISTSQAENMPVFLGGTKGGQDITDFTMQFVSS

Row | Compound | IC50 [nM] | IC50 (compound pre-incubated 1 hour with recombinant human IL-1β) [nM]
1 | C[C@@H](c1c[nH]c2cccc(F)c12)[C@@H]1NC(=O)[C@@H]2C[C@H](F)CN2C(=O)CNC(=O)[C@H](Cc2ccc(C(=O)O)cc2)NC(=O)[C@H](Cc2ccncc2)NC(=O)[C@H](Cc2ccc(-c3ccc(C(=O)O)cc3)cc2)NC(=O)[C@H]2C[C@@H](Cc3ccccc3)CN2C(=O)CNC(=O)[C@H](CCN)NC(=O)[C@H](CCC(N)=O)NC(=O)[C@H](Cc2cncnc2)NC(=O)C(C)(C)NC(=O)[C@H](Cc2c[nH]c3ccccc23)NC(=O)[C@H](CCC(=O)O)NC(=O)C(C)(C)NC1=O [Example 29] (cyclo([Bip(4'-COOH)][4Pal][Phe(4-COOH)]G[Pro(cis-4-F)][Trp(βS-Me,4-F)][Aib]EW[Aib][Ala(pyrimidin-5-yl)]Q[Dab]G[X5])) | 0.019 | –
2 | C[C@@H](c1c[nH]c2cccc(F)c12)[C@@H]1NC(=O)[C@@H]2C[C@H](F)CN2C(=O)CNC(=O)[C@H](Cc2ccc(C(=O)O)cc2)NC(=O)[C@H](CC23CC(C2)C3)NC(=O)[C@H](Cc2ccc(-c3ccc(C(=O)O)cc3)cc2)NC(=O)[C@H]2C[C@@H](Cc3ccc(F)cc3)CN2C(=O)CNC(=O)[C@H](CCN)NC(=O)[C@H](CCC(N)=O)NC(=O)[C@H](CO)NC(=O)C(C)(C)NC(=O)[C@H](Cc2c[nH]c3ccccc23)NC(=O)[C@H](CO)NC(=O)[C@](C)(CO)NC1=O [Example 97] (cyclo([Bip(4'-COOH)][Ala(1-bicyclo(1.1.1)pentyl)][Phe(4-COOH)]G[Pro(cis-4-F)][Trp(βS-Me,4-F)][αMeS]SW[Aib]SQ[Dab]G[dPro(4R-Bzl(4-F))])) | 0.036 | –
3 | C[C@@H](c1c[nH]c2cccc(F)c12)[C@@H]1NC(=O)[C@@H]2C[C@H](F)CN2C(=O)CNC(=O)[C@H](Cc2ccc(C(=O)O)cc2)NC(=O)[C@H](Cc2ccncc2)NC(=O)[C@H](Cc2ccc(-c3ccc(C(=O)O)cc3)cc2)NC(=O)[C@H]2[C@@H](Cc3ccc(Br)cc3)CCN2C(=O)CNC(=O)[C@H](CCCN)NC(=O)[C@H](CCC(N)=O)NC(=O)[C@H](Cc2cncnc2)NC(=O)C(C)(C)NC(=O)[C@H](Cc2c[nH]c3ccccc23)NC(=O)[C@H](CCC(=O)O)NC(=O)C(C)(C)NC1=O [Example 151] (cyclo([Bip(4'-COOH)][4Pal][Phe(4-COOH)]G[Pro(cis-4-F)][Trp(βS-Me,4-F)][Aib]EW[Aib][Ala(pyrimidin-5-yl)]Q[Orn]G[dPro(3S-(4-Br-benzyl))])) | 0.022 | –
4 | C[C@@H](c1c[nH]c2cccc(F)c12)[C@@H]1NC(=O)[C@@H]2C[C@H](F)CN2C(=O)CNC(=O)[C@H](Cc2ccc(C(=O)O)cc2)NC(=O)[C@H](CC23CC(C2)C3)NC(=O)[C@H](Cc2ccc(-c3ccc(C(=O)O)cc3)cc2)NC(=O)[C@H]2C[C@@H](Cc3ccc(F)cc3)CN2C(=O)CNC(=O)[C@H](CCN)NC(=O)[C@H](CCC(N)=O)NC(=O)[C@H](CCCN)NC(=O)C(C)(C)NC(=O)[C@H](Cc2c[nH]c3ccccc23)NC(=O)[C@H](CO)NC(=O)C(C)(C)NC1=O [Example 110] (cyclo([Bip(4'-COOH)][Ala(1-bicyclo(1.1.1)pentyl)][Phe(4-COOH)]G[Pro(cis-4-F)][Trp(βS-Me,4-F)][Aib]SW[Aib][Orn]Q[Dab]G[dPro(4R-Bzl(4-F))])) | 0.038 | –
5 | CC(=O)N1CCN(c2ccc(C[C@@H]3NC(=O)[C@H]4C[C@@H](Cc5ccc(F)cc5)CN4C(=O)CNC(=O)[C@H](CCN)NC(=O)[C@H](CCC(N)=O)NC(=O)[C@H](Cc4cncnc4)NC(=O)[C@](C)(CC(=O)O)NC(=O)[C@H](Cc4c[nH]c5ccccc45)NC(=O)[C@H](CO)NC(=O)C(C)(C)NC(=O)[C@H]([C@@H](C)c4c[nH]c5cccc(F)c45)NC(=O)[C@@H]4C[C@H](F)CN4C(=O)CNC(=O)[C@H](Cc4ccc(C(=O)O)cc4)NC(=O)[C@H](Cc4ccncc4)NC3=O)cc2)CC1 [Example 184] (cyclo([Phe(4-(4-Ac-piperazinyl))][4Pal][Phe(4-COOH)]G[Pro(cis-4-F)][Trp(βS-Me,4-F)][Aib]SW[αMeD][Ala(pyrimidin-5-yl)]Q[Dab]G[dPro(4R-Bzl(4-F))])) | 0.014 | –
6 | CC(=O)N1CCN(c2ccc(C[C@@H]3NC(=O)[C@H]4C[C@@H](Cc5ccc(F)cc5)CN4C(=O)CNC(=O)[C@H](CCN)NC(=O)[C@H](CCC(N)=O)NC(=O)[C@H](Cc4cncnc4)NC(=O)C(C)(C)NC(=O)[C@H](Cc4c[nH]c5ccccc45)NC(=O)[C@H](CO)NC(=O)C(C)(C)NC(=O)[C@H]([C@@H](C)c4c[nH]c5cccc(F)c45)NC(=O)[C@@H]4C[C@H](F)CN4C(=O)CNC(=O)[C@H](Cc4ccc(C(=O)O)cc4)NC(=O)[C@H](Cc4ccncc4)NC3=O)cc2)CC1 [Example 183] (cyclo([Phe(4-(4-Ac-piperazinyl))][4Pal][Phe(4-COOH)]G[Pro(cis-4-F)][Trp(βS-Me,4-F)][Aib]SW[Aib][Ala(pyrimidin-5-yl)]Q[Dab]G[dPro(4R-Bzl(4-F))])) | 0.025 | –
7 | C[C@@H](c1c[nH]c2cccc(F)c12)[C@@H]1NC(=O)[C@@H]2C[C@H](F)CN2C(=O)CNC(=O)[C@H](Cc2ccc(C(=O)O)cc2)NC(=O)[C@H](Cc2ccncc2)NC(=O)[C@H](Cc2ccc(-c3ccc(C(=O)O)cc3)cc2)NC(=O)[C@H]2C[C@@H](Cc3ccncc3)CN2C(=O)CNC(=O)[C@H](CO)NC(=O)[C@H](CCC(N)=O)NC(=O)[C@H](CC2CCOCC2)NC(=O)[C@](C)(CC(=O)O)NC(=O)[C@H](Cc2c[nH]c3ccccc23)NC(=O)[C@H](CO)NC(=O)C(C)(C)NC1=O [Example 189] (cyclo([Bip(4'-COOH)][4Pal][Phe(4-COOH)]G[Pro(cis-4-F)][Trp(βS-Me,4-F)][Aib]SW[αMeD][Ala(4-THP)]QSG[dPro(4R-(4-pyridylmethyl))])) | 0.016 | –
8 | C[C@@H](c1c[nH]c2cccc(F)c12)[C@@H]1NC(=O)[C@@H]2C[C@H](F)CN2C(=O)CNC(=O)[C@H](Cc2ccc(C(=O)O)cc2)NC(=O)[C@H](Cc2ccncc2)NC(=O)[C@H](Cc2ccc(-c3ccc(C(=O)O)cc3)cc2)NC(=O)[C@H]2[C@@H](Cc3ccncc3)CCN2C(=O)CNC(=O)[C@H](CCN)NC(=O)[C@H](CCC(N)=O)NC(=O)[C@@H](Cc2ccc(F)cc2)NC(=O)[C@@](C)(CC(=O)O)NC(=O)[C@H](Cc2c[nH]c3ccccc23)NC(=O)[C@H](CO)NC(=O)C(C)(C)NC1=O [Example 236] (cyclo([Bip(4'-COOH)][4Pal][Phe(4-COOH)]G[Pro(cis-4-F)][Trp(βS-Me,4-F)][Aib]SW[d(αMeD)][dPhe(4-F)]Q[Dab]G[X4])) | – | 0.021
9 | C[C@@H](c1c[nH]c2cccc(F)c12)[C@@H]1NC(=O)[C@@H]2C[C@H](F)CN2C(=O)CNC(=O)[C@H](Cc2ccc(C(=O)O)cc2)NC(=O)[C@H](Cc2ccncc2)NC(=O)[C@H](Cc2ccc(-c3ccc(C(=O)O)cc3)cc2)NC(=O)[C@H]2[C@@H](Cc3ccncc3)CCN2C(=O)CNC(=O)[C@H](CCN)NC(=O)[C@H](CCC(N)=O)NC(=O)[C@H](Cc2cncnc2)NC(=O)[C@@](C)(CC(=O)O)NC(=O)[C@H](Cc2c[nH]c3cccc(Cl)c23)NC(=O)[C@H](CO)NC(=O)C(C)(C)NC1=O [Example 225] (cyclo([Bip(4'-COOH)][4Pal][Phe(4-COOH)]G[Pro(cis-4-F)][Trp(βS-Me,4-F)][Aib]S[Trp(4-Cl)][d(αMeD)][Ala(pyrimidin-5-yl)]Q[Dab]G[X4])) | 0.019 | –
10 | C[C@@H](c1c[nH]c2cccc(F)c12)[C@@H]1NC(=O)[C@@H]2C[C@H](F)CN2C(=O)CNC(=O)[C@H](Cc2ccc(C(=O)O)cc2)NC(=O)[C@H](CC23CC(C2)C3)NC(=O)[C@H](Cc2ccc(-c3ccc(C(=O)O)cc3)cc2)NC(=O)[C@H]2C[C@@H](Cc3ccc(F)cc3)CN2C(=O)CNC(=O)[C@H](CCN)NC(=O)[C@H](CCC(N)=O)NC(=O)[C@H](Cc2cncnc2)NC(=O)C(C)(C)NC(=O)[C@H](Cc2c[nH]c3ccccc23)NC(=O)[C@H](CCC(=O)O)NC(=O)C(C)(C)NC1=O [Example 13] (cyclo([Bip(4'-COOH)][Ala(1-bicyclo(1.1.1)pentyl)][Phe(4-COOH)]G[Pro(cis-4-F)][Trp(βS-Me,4-F)][Aib]EW[Aib][Ala(pyrimidin-5-yl)]Q[Dab]G[dPro(4R-Bzl(4-F))])) | 0.022 | –
11 | C[C@@H](c1c[nH]c2cccc(F)c12)[C@@H]1NC(=O)[C@@H]2C[C@H](F)CN2C(=O)CNC(=O)[C@H](Cc2ccc(C(=O)O)cc2)NC(=O)[C@H](Cc2ccncc2)NC(=O)[C@H](Cc2ccc(-c3ccc(C(=O)O)cc3)cc2)NC(=O)[C@H]2[C@@H](Cc3ccc(Br)cc3)CCN2C(=O)CNC(=O)[C@H](CCCCN)NC(=O)[C@H](CCC(N)=O)NC(=O)[C@H](Cc2cncnc2)NC(=O)C(C)(C)NC(=O)[C@H](Cc2c[nH]c3ccccc23)NC(=O)[C@H](CCC(=O)O)NC(=O)C(C)(C)NC1=O [Example 152] (cyclo([Bip(4'-COOH)][4Pal][Phe(4-COOH)]G[Pro(cis-4-F)][Trp(βS-Me,4-F)][Aib]EW[Aib][Ala(pyrimidin-5-yl)]QKG[dPro(3S-(4-Br-benzyl))])) | 0.031 | –
12 | CC(C)[C@@H]1NC(=O)C(C)(C)NC(=O)[C@H]([C@@H](C)c2c[nH]c3cccc(F)c23)NC(=O)[C@@H]2C[C@H](F)CN2C(=O)CNC(=O)[C@H](Cc2ccc(C(=O)O)cc2)NC(=O)[C@H](Cc2ccncc2)NC(=O)[C@H](Cc2ccc(-c3ccc(C(=O)O)cc3)cc2)NC(=O)[C@H]2C[C@@H](Cc3ccc(F)cc3)CN2C(=O)CNC(=O)[C@H](CCN)NC(=O)[C@H](CCC(N)=O)NC(=O)[C@H](Cc2cncnc2)NC(=O)[C@](C)(CCCCN)NC(=O)[C@H](Cc2c[nH]c3ccccc23)NC1=O [Example 135] (cyclo([Bip(4'-COOH)][4Pal][Phe(4-COOH)]G[Pro(cis-4-F)][Trp(βS-Me,4-F)][Aib]VW[αMeK][Ala(pyrimidin-5-yl)]Q[Dab]G[dPro(4R-Bzl(4-F))])) | 0.035 | –
